Measured values: US20200093856A1, “Hydrogen-containing composition for ameliorating depressive symptom” (MiZ Company Limited, priority 2018, published 2020)

Test system: patient diagnosed as having depression
Test: Case of improvement of depressive symptoms by aspiration (or inhalation) of hydrogen
Assay type: in vivo, human
Conditions: for symptoms (depressive symptoms, anthropophobia, insomnia) under prescribed medication: patient, Abilify intramuscular injections, Lexotan Tablet 2 and Brotizolam Tablet taken together, before hydrogen
From the text: A patient diagnosed as having depression, who had suffered from anthropophobia and insomnia along with depressive symptoms, received intramuscular injections of Abilify™ (Otsuka Pharmaceutical Co., Ltd. (Japan); with indication of depressive disorder) prescribed by a doctor at the department of psychiatry, and took Lexotan™ Tablet 2 (Chugai Pharmaceutical Co., Ltd. (Japan); with an indications of anxiety and tension associated with depressive disorder) and Brotizolam Tablet (Choseido Pharmaceutical Co., Ltd.; with indication of insomnia); however, the symptoms were not improved. Thus, hydrogen gas (70 to 140 ml/min) was aspirated for 1 hour once or twice a day using a hydrogen aspirator (MHG-2000α™ (MiZ Company Limited)) over about half a year while the medication was continued. As a result, the number of days on which it was possible to naturally fall asleep increased (2 or 3 days a week), and the liveliness of voice was enhanced. About half a year after the start of aspiration (or inhalation) of hydrogen gas, administration of the Brotizolam Tablet was discontinued, and the amount of hydrogen gas aspirated was increased (280 ml/min for 6 hours per day). The aspiration of hydrogen gas was continued over about 3 months. As a result, the depressive symptoms were improved, and therefore the use of Abilify and Lexotan Tablet 2 was discontinued on the basis of the doctor's judgement. […] After the use of Abilify and Lexotan Tablet 2, aspiration of hydrogen gas (280 ml/min for 6 hours per day) was continued.

[1] = hydrogen gas 280 ml/min for 6 hours per day continued after Abilify and Lexotan Tablet 2 were discontinued

Q: With O=C1CCc2ccc(OCCCCN3CCN(c4cccc(Cl)c4Cl)CC3)cc2N1 [Abilify, aripiprazole, reference compound] as the compound, how does the “symptoms (depressive symptoms, anthropophobia, insomnia) under prescribed medication” value (shortened to “symptoms … under prescribed medication”) read?
A: not improved

Q: Which “symptoms … under prescribed medication” value does the source give for Cc1nnc2n1-c1sc(Br)cc1C(c1ccccc1Cl)=NC2 [Brotizolam Tablet, Brotizolam, reference compound] here?
A: not improved

Q: Which liveliness of voice (hydrogen gas 70 to 140 ml/min aspirated 1 hour once or twice a day over about half a year, medication continued) does the source give for [HH] [hydrogen gas, hydrogen] here?
A: enhanced

Q: And the “care personnel's evaluation of the patient” value [1]?
A: being much more cheerful in disposition than before

Q: What about the depressive symptoms [1] of the same compound?
A: improved to the extent that the patient went outside more frequently than before, and enjoyed a life similar to a healthy person

Q: What about the depressive symptoms (hydrogen gas 280 ml/min for 6 hours per day over about 3 months, Brotizolam discontinued, Abilify and Lexotan continued) of the same compound?
A: improved

Q: And the “improving effect on depressive symptoms versus amount of hydrogen gas aspirated per day” value (same patient, 70 to 140 ml/min 1 hour once or twice a day versus 280 ml/min 6 hours per day)?
A: enhanced as the amount of hydrogen gas aspirated by the patient per day increases

Q: O=C1CN=C(c2ccccn2)c2cc(Br)ccc2N1 [Lexotan Tablet 2, bromazepam, reference compound] was tested. Which “symptoms … under prescribed medication” value did it give?
A: not improved
